Measurements from PubChem BioAssay (NCI).
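Step 1: Grow cells in 96-well plates. Step 2: Expose to compound for 48 hours at 5 concentrations. Step 3: Interpolate endpoints linearly; if unreached, use highest concentration. Definition used: TGI = concentration required for complete inhibition of growth.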

What was measured:
Assay in all cases: growth of human tumour cells (NCI), 48 h
NCI-H522 lung = system: NCI-H522 lung
NCI-H226 lung = system: NCI-H226 lung
SK-OV-3 ovarian = system: SK-OV-3 ovarian
HOP-92 NSCLC = system: HOP-92 NSCLC
RPMI-8226 leukemia = system: RPMI-8226 leukemia
RXF 393 renal = system: RXF 393 renal
UACC-257 melanoma = system: UACC-257 melanoma
MDA-MB-231 breast = system: MDA-MB-231 breast
HCC-2998 colon = system: HCC-2998 colon
SF-268 CNS = system: SF-268 CNS
COLO 205 colon = system: COLO 205 colon
SK-MEL-2 melanoma = system: SK-MEL-2 melanoma
MALME-3M melanoma = system: MALME-3M melanoma
NCI-H23 lung = system: NCI-H23 lung
SW-620 colon = system: SW-620 colon
BT-549 breast = system: BT-549 breast
786-0 renal = system: 786-0 renal
MCF7 breast = system: MCF7 breast
SNB-19 CNS = system: SNB-19 CNS
SF-539 CNS = system: SF-539 CNS

## CC(=O)OCc1nc(C#N)c(N)o1
NCI-H522 lung
  TGI: > 100 µM
NCI-H226 lung
  TGI: > 100 µM
SK-OV-3 ovarian
  TGI: > 100 µM
HOP-92 NSCLC
  TGI: > 100 µM
RPMI-8226 leukemia
  TGI: > 100 µM
RXF 393 renal
  TGI: > 100 µM
UACC-257 melanoma
  TGI: > 100 µM
MDA-MB-231 breast
  TGI: > 100 µM
HCC-2998 colon
  TGI: > 100 µM
SF-268 CNS
  TGI: > 100 µM
COLO 205 colon
  TGI: > 100 µM
SK-MEL-2 melanoma
  TGI: > 100 µM
MALME-3M melanoma
  TGI: > 100 µM
NCI-H23 lung
  TGI: > 100 µM
SW-620 colon
  TGI: > 100 µM
BT-549 breast
  TGI: > 100 µM
786-0 renal
  TGI: > 100 µM
MCF7 breast
  TGI: > 100 µM
SNB-19 CNS
  TGI: > 100 µM

## [N-]=[N+]=NC1(N=[N+]=[N-])C(=O)NN=C(c2ccccc2)C1=O (stereo unspecified)
NCI-H522 lung
  TGI: > 100 µM
NCI-H226 lung
  TGI: > 100 µM
SK-OV-3 ovarian
  TGI: > 100 µM
HOP-92 NSCLC
  TGI: > 100 µM
RPMI-8226 leukemia
  TGI: > 100 µM
RXF 393 renal
  TGI: > 100 µM
SF-539 CNS
  TGI: > 100 µM
UACC-257 melanoma
  TGI: > 100 µM
MDA-MB-231 breast
  TGI: > 100 µM
HCC-2998 colon
  TGI: > 100 µM
SF-268 CNS
  TGI: 28.4 µM
COLO 205 colon
  TGI: > 100 µM
MALME-3M melanoma
  TGI: > 100 µM
NCI-H23 lung
  TGI: > 100 µM
SW-620 colon
  TGI: > 100 µM
BT-549 breast
  TGI: > 100 µM
786-0 renal
  TGI: > 100 µM
MCF7 breast
  TGI: > 100 µM

## O=C(OCc1ccccc1)N1CCNCCNCC1
NCI-H522 lung
  TGI: > 100 µM
NCI-H226 lung
  TGI: > 100 µM
HOP-92 NSCLC
  TGI: > 100 µM
RPMI-8226 leukemia
  TGI: > 100 µM
RXF 393 renal
  TGI: > 100 µM
SF-539 CNS
  TGI: > 100 µM
UACC-257 melanoma
  TGI: > 100 µM
MDA-MB-231 breast
  TGI: > 100 µM
HCC-2998 colon
  TGI: > 100 µM
SF-268 CNS
  TGI: > 100 µM
COLO 205 colon
  TGI: > 100 µM
SK-MEL-2 melanoma
  TGI: > 100 µM
NCI-H23 lung
  TGI: > 100 µM
SW-620 colon
  TGI: > 100 µM
BT-549 breast
  TGI: > 100 µM
786-0 renal
  TGI: > 100 µM
MCF7 breast
  TGI: > 100 µM
SNB-19 CNS
  TGI: > 100 µM

## CCOC(=O)CSc1nc2ccccc2c(=O)n1N
NCI-H522 lung
  TGI: > 100 µM
NCI-H226 lung
  TGI: > 100 µM
HOP-92 NSCLC
  TGI: > 100 µM
RPMI-8226 leukemia
  TGI: > 100 µM
RXF 393 renal
  TGI: > 100 µM
SF-539 CNS
  TGI: > 100 µM
UACC-257 melanoma
  TGI: > 100 µM
MDA-MB-231 breast
  TGI: > 100 µM
HCC-2998 colon
  TGI: > 100 µM
SF-268 CNS
  TGI: > 100 µM
COLO 205 colon
  TGI: > 100 µM
SK-MEL-2 melanoma
  TGI: > 100 µM
MALME-3M melanoma
  TGI: > 100 µM
NCI-H23 lung
  TGI: > 100 µM
SW-620 colon
  TGI: > 100 µM
BT-549 breast
  TGI: > 100 µM
786-0 renal
  TGI: > 100 µM
MCF7 breast
  TGI: > 100 µM
SNB-19 CNS
  TGI: > 100 µM

## O=C1CCC(=O)N1CNc1ccc2c(c1)Sc1ccccc1O2
NCI-H522 lung
  TGI: 53.6 µM
NCI-H226 lung
  TGI: 63.1 µM
HOP-92 NSCLC
  TGI: 56.7 µM
RPMI-8226 leukemia
  TGI: > 100 µM
RXF 393 renal
  TGI: 79.9 µM
SF-539 CNS
  TGI: 34.7 µM
UACC-257 melanoma
  TGI: > 100 µM
MDA-MB-231 breast
  TGI: > 100 µM
SF-268 CNS
  TGI: > 100 µM
COLO 205 colon
  TGI: 35.3 µM
SK-MEL-2 melanoma
  TGI: 40.6 µM
MALME-3M melanoma
  TGI: > 100 µM
NCI-H23 lung
  TGI: > 100 µM
SW-620 colon
  TGI: > 100 µM
BT-549 breast
  TGI: 93.4 µM
786-0 renal
  TGI: 58.9 µM
MCF7 breast
  TGI: > 100 µM
SNB-19 CNS
  TGI: > 100 µM

## COC(C)(C)C(O)C(O)C[C@H](C)C1CC=C2C1(C)CCC1[C@@]3(C)CCC(OC(C)=O)C(C)(C)C3CC(OC3OC(COC(C)=O)C(O)C(O)C3O)[C@@]21C (stereo partly specified)
NCI-H522 lung
  TGI: 8.7 µM
NCI-H226 lung
  TGI: > 10 µM
SK-OV-3 ovarian
  TGI: > 10 µM
HOP-92 NSCLC
  TGI: > 10 µM
RPMI-8226 leukemia
  TGI: 5.14 µM
RXF 393 renal
  TGI: > 10 µM
SF-539 CNS
  TGI: > 10 µM
UACC-257 melanoma
  TGI: > 10 µM
MDA-MB-231 breast
  TGI: 9.73 µM
HCC-2998 colon
  TGI: 6.15 µM
SF-268 CNS
  TGI: > 10 µM
COLO 205 colon
  TGI: 3.89 µM
MALME-3M melanoma
  TGI: > 10 µM
NCI-H23 lung
  TGI: > 10 µM
SW-620 colon
  TGI: > 10 µM
BT-549 breast
  TGI: > 10 µM
786-0 renal
  TGI: > 10 µM
MCF7 breast
  TGI: > 10 µM
SNB-19 CNS
  TGI: > 10 µM

## Cc1c(O)c(OC2OC(CO)C(O)C(O)C2O)cc2c1CC[C@@H]1C2(C)C(=O)C[C@]2(C)[C@@H]([C@@](C)(O)C(O)/C=C/C(C)(C)O)[C@H](O)C[C@@]12C (stereo partly specified)
NCI-H522 lung
  TGI: > 100 µM
NCI-H226 lung
  TGI: > 100 µM
SK-OV-3 ovarian
  TGI: > 100 µM
HOP-92 NSCLC
  TGI: > 100 µM
RXF 393 renal
  TGI: > 100 µM
SF-539 CNS
  TGI: > 100 µM
UACC-257 melanoma
  TGI: > 100 µM
MDA-MB-231 breast
  TGI: > 100 µM
HCC-2998 colon
  TGI: > 100 µM
SF-268 CNS
  TGI: > 100 µM
COLO 205 colon
  TGI: > 100 µM
SK-MEL-2 melanoma
  TGI: > 100 µM
MALME-3M melanoma
  TGI: > 100 µM
NCI-H23 lung
  TGI: > 100 µM
SW-620 colon
  TGI: > 100 µM
BT-549 breast
  TGI: > 100 µM
786-0 renal
  TGI: > 100 µM
MCF7 breast
  TGI: > 100 µM
SNB-19 CNS
  TGI: > 100 µM

## CC(C)=CCNc1ncnc2c1ncn2CCC(=O)OC(C)(C)C
NCI-H522 lung
  TGI: > 100 µM
NCI-H226 lung
  TGI: > 100 µM
SK-OV-3 ovarian
  TGI: > 100 µM
HOP-92 NSCLC
  TGI: > 100 µM
RPMI-8226 leukemia
  TGI: > 100 µM
RXF 393 renal
  TGI: > 100 µM
SF-539 CNS
  TGI: > 100 µM
MDA-MB-231 breast
  TGI: > 100 µM
HCC-2998 colon
  TGI: > 100 µM
SF-268 CNS
  TGI: > 100 µM
COLO 205 colon
  TGI: > 100 µM
MALME-3M melanoma
  TGI: > 100 µM
NCI-H23 lung
  TGI: > 100 µM
SW-620 colon
  TGI: > 100 µM
BT-549 breast
  TGI: > 100 µM
786-0 renal
  TGI: > 100 µM
MCF7 breast
  TGI: > 100 µM
SNB-19 CNS
  TGI: > 100 µM

## CCOC(=O)CSc1nc(-c2ccc(OC)cc2)c(C#N)c(=O)[nH]1
NCI-H522 lung
  TGI: > 100 µM
NCI-H226 lung
  TGI: > 100 µM
SK-OV-3 ovarian
  TGI: > 100 µM
HOP-92 NSCLC
  TGI: > 100 µM
RPMI-8226 leukemia
  TGI: > 100 µM
RXF 393 renal
  TGI: > 100 µM
SF-539 CNS
  TGI: > 100 µM
UACC-257 melanoma
  TGI: > 100 µM
MDA-MB-231 breast
  TGI: > 100 µM
HCC-2998 colon
  TGI: > 100 µM
SF-268 CNS
  TGI: > 100 µM
COLO 205 colon
  TGI: > 100 µM
SK-MEL-2 melanoma
  TGI: > 100 µM
NCI-H23 lung
  TGI: > 100 µM
SW-620 colon
  TGI: > 100 µM
BT-549 breast
  TGI: > 100 µM
786-0 renal
  TGI: > 100 µM
MCF7 breast
  TGI: > 100 µM
SNB-19 CNS
  TGI: > 100 µM

## COC(=O)c1ccccc1C1CN=NC12Cc1c(C)cc(C)cc1C2=O (stereo unspecified)
NCI-H522 lung
  TGI: > 100 µM
NCI-H226 lung
  TGI: > 100 µM
SK-OV-3 ovarian
  TGI: > 100 µM
HOP-92 NSCLC
  TGI: > 100 µM
RXF 393 renal
  TGI: > 100 µM
SF-539 CNS
  TGI: > 100 µM
UACC-257 melanoma
  TGI: > 100 µM
MDA-MB-231 breast
  TGI: > 100 µM
HCC-2998 colon
  TGI: > 100 µM
SF-268 CNS
  TGI: > 100 µM
COLO 205 colon
  TGI: > 100 µM
SK-MEL-2 melanoma
  TGI: > 100 µM
MALME-3M melanoma
  TGI: > 100 µM
NCI-H23 lung
  TGI: > 100 µM
SW-620 colon
  TGI: > 100 µM
BT-549 breast
  TGI: > 100 µM
786-0 renal
  TGI: > 100 µM
MCF7 breast
  TGI: > 100 µM
SNB-19 CNS
  TGI: > 100 µM
